Data as given in paper PMC8605905 (Oxidative Medicine and Cellular Longevity, 2021).

Legend:
[1] = target: T1, Aβ and ΔK280 tauRD aggregates (Homo sapiens, UniProt P05067+P10636, DEL597-597); assay: TEM examination of Aβ and tau aggregates; conditions: 10 μM
T1 construct: To investigate Aβ and ΔK280 tauRD aggregates
Description: To investigate Aβ and ΔK280 tauRD aggregates, samples of the fibrils formed with and without treatment of a tested compound were placed on a 200-mesh copper (holey-carbon) grid and visualized using a JEM-1230 transmission electron microscope (TEM) (JEOL, Tokyo, Japan) at an accelerating voltage of 100 kV.

[2] = system: ∆K280 tauRD-DsRed SH-SY5Y cells; assay: ROS assay (DCFH-DA) in ΔK280 tauRD-DsRed cells; assay type: cell-based, Human; conditions: 10 μM
Method: On day 1, Aβ-GFP or ∆K280 tauRD-DsRed SH-SY5Y cells were seeded into 96-well plates (2.5 × 10^4/well) and treated with retinoic acid (10 μM; Sigma-Aldrich) to prompt neuronal differentiation. […] On day 8, cells were stained with Hoechst 33342 (0.1 μg/ml; Sigma-Aldrich) for 30 min, and cell images were automatically captured at excitation/emission wavelengths of 482/[…] (GFP fluorescence) or 543/593 nm (DsRed fluorescence) using a high content analysis (HCA) system (Micro Confocal High-Content Imaging System). Image Acquisition and Analysis Software (MetaXpress) (Molecular Devices, Sunnyvale, CA, USA) was used to analyse the images. CellROX Orange (5 μM; Molecular Probes, Eugene, OR, USA) (for Aβ-GFP cells) or dichloro-dihydro-fluorescein diacetate (DCFH-DA, 10 μM; Invitrogen) (for ∆K280 tauRD-DsRed cells) was added to the cells and incubated at 37°C for 30 min. The HCA system was used to measure intracellular ROS at 531/593 nm (CellROX Orange fluorescence) or 482/536 nm (DCFH-DA fluorescence) of excitation/emission wavelengths.

**Q.** How did the “Aβ and tau aggregate structures by TEM” value [1] turn out when `CN(C)c1ccc(/C=C/C(=O)c2c(O)c3ccccc3oc2=O)cc1` [LM-021, (E)-3-(3-(4-(dimethylamino)phenyl)acryloyl)-4-hydroxy-2H-chromen-2-one] was run?
**A.** Its value is “reduced amyloid aggregates”.

**Q.** What about the “ROS level elevated by ∆K280 tauRD overexpression” value [2] of the same molecule?
**A.** The value was “effectively reduced”.
